Reference: patent publication US20210228741A1, “METHODS AND COMPOSITIONS TO STIMULATE RETINAL REGENERATION” (UNIVERSITY OF WASHINGTON, priority 2018, published 2021)

Columns and labels:
[1] = test system: WT retinas; conditions: mouse, in vivo
Excerpt: A) Experimental paradigm for analyzing STAT3 phosphorylation by western blot in MG. P11 retinas were dissociated and grown in a growth media containing mEGF for 7 DIV. MG were passaged to eliminate residual neurons and cultured in a media containing doxycycline to induce Ascl1 expression for 6 DIV. […] B) Representative images from confluent cultures of non-treated, DOX-treated, and DOX+STATi-treated MG just before harvesting. C) Representative western blot for pSTAT3 (Y705), STAT3, and Beta-actin on non-treated, Dox-treated, and Dox+STATi-treated MG cultures. […] Scale bars for B and E are 25 and 40 μm, respectively.
Immunohistochemistry (IHC): Upon euthanasia of adult mice, eyes were removed and comeas dissected away. Globes were then fixed for 1 hour in 4% PFA in PBS followed by an overnight incubation in 30% sucrose in PBS at 4° C. Fixed eyes were then frozen in O.T.C. (Sakura Finetek) at −80° C. until sectioned. Frozen eyes were sectioned on a cryostat (Leica) at 16-18 μm thick and were stored at −20° C. until staining. All washes were 3 times 20 minutes in PBS on a rotating plate at room temperature. Slides were washed then blocked in 10% normal horse serum, 0.5% Triton X-100 in PBS for a minimum of 1 hour prior to primary. All primary antibodies were diluted in blocking solution and applied to tissue for a minimum of 3 hours. […]

[2] = test system: Ascl1 binding at STAT3 bound regions; assay: Ascl1 ChIP-seq on control and STATi-treated cultured MG; assay type: cell-based, mouse; conditions: cultured P12 MG, doxycycline-induced Ascl1
Description: To directly assess the effect that STAT pathway activation has on Ascl1 binding at Id genes and more broadly across the genome during MG reprogramming, we performed an Ascl1 ChIP-seq on control and STATi-treated MG. Frozen stocks of MG from P12 germline-rtTA:tetO429 Ascl1 mice were thawed and cultured to confluency for 2 days in high FBS growth media. Cells were then given a low FBS media with STATi or vehicle for the remaining 4 DIV. At 3 DIV (1 day after STATi), doxycyline was administered to induce Ascl1 overexpression in the MG. Cells were then collected and fixed for ChIP-seq after 6 DIV. FASTQ files were aligned to the mm10 genome using Bowtie2 and peaks were called using MACS2. […] Both datasets contained the canonical Ascl1 E-box as the top scoring motif, as determined by HOMER, with strong central enrichment of peaks from both datasets around the Ascl1 motif. […]
Ascl1 Chromatin Immunoprecipitation-Sequencing (ChIP-Seq): P0 retinas or cultured, post-natal day 12, Müller glia (+/−Ascl1 overexpression, rtTA germline:tetO-Ascl1-ires-GFP mice ±doxycycline) were digested with papain/DNase to single cells and fixed with 0.75% formaldehyde for 10 minutes at room temperature. […] Libraries were prepared with standard Illumina adaptors and sequenced to an approximate depth of 36 million reads each. Sequence reads (36 bp) were mapped to the mouse mm9 genome using bwa (v 0.7.12-r1039). […]

[3] = test system: Ascl1-reporter Müller glia; assay: miRNA mimic/antagomiR transfection of P11 MG cultures from Ascl1-CreER:tdTomato reporter mice; assay type: cell-based, mouse
Excerpt: To test whether miRNAs regulate the neurogenic competence of MG, we used primary dissociated cell cultures, since this method has proven effective for identifying reprogramming factors that are effective both in vitro and in vivo (Jorstad et al., 2017; Pollak et al., 2013; Ueki et al., 2015). We hypothesized that miRNAs highly expressed in RPCs may be important in establishing and maintaining the RPC gene expression pattern. One prediction of this hypothesis is that over-expression of the RPC-miRNAs in MG would cause the MG to adopt a progenitor-like gene expression profile. […]
MG cultures from P11 Ascl1-CreER:tdTomatoflSTOP/flSTOP mice were transfected with either a cocktail of all four RPC-miR mimics, or each miRNA mimic individually (FIG. 10B). We added 4-Hydroxy-tamoxifen to the cultures to activate the cre-recombinase and monitored the cells for tdTomato expression. […]
Müller glia were dissociated (see above) from postnatal day (P) 11/12 mice and adult (one month, 2, and 4 months) and grown in Neurobasal medium supplemented with N-2, tetracycline-free 10% fetal bovine serum (FBS, Clontech), and epidermal growth factor (EGF, R&D Systems, 100 ng/mL) as described previously (Ueki et al., 2012). […] EdU was added either with the onset of culturing to track cell proliferation of MG lineage or after transfection to quantify cell proliferation due to the treatment. […]

Compound | toxicity (TUNEL staining) [1] | Ascl1 binding (ChIP-seq peaks) at STAT3 bound regions near Id1 and Id3 [2] | Ascl1:tdTomato+ cells (Ascl1-reporter expression) ([3]; P11 MG cultures, days post-transfection vs control) | conversion of MG into a neuronal/RPC phenotype ([3]; young (P11) MG in vitro, summary statement)
CN(CC(=O)N(Cc1ccc(C2CCCCC2)cc1)c1ccc(C(=O)O)cc1)S(=O)(=O)c1c(F)c(F)c(F)c(F)c1F [SH-4-54] | not found to be toxic | Decreased Ascl1 binding |  | 
miR-25: miR-25 mimic, CAUUGCACUUGUCUCGGUCUGA (SEQ ID NO: 22); double-stranded, preprocessed miRNA (double-stranded mimic, other strand not given here) |  |  | significant increase | approximately 40%
